The record followed here is patent publication US11279714B2, “Anti-infective compounds” (priority 2014, dated 2022).

The test system of series [1] is Raw 264.7 cells infected with H37Rv-GFP. Kind of series: microbe, parasite or virus in culture. Particulars: Mycobacterium tuberculosis, H37RV, 120 h; read-out: QIM (MIC50). In kind it is cell-based, M. tuberculosis.
The subject of series [2] is M. tuberculosis H37Rv expressing the green fluorescent protein (H37Rv-GFP). The series is described as follows: microbe, parasite or virus in culture. The series is classed as cell-based. Particulars: Mycobacterium tuberculosis, H37RV, 120 h; read-out: QUM (MIC50).

Each structure is given as a SMILES string. In brackets after ≈: the same amount, converted by molar mass. Bounds are passed on as bounds.

A word on the melting point: it is the temperature of the solid-liquid transition.

`COc1ccc(NC(=O)c2ccc3sc(N4CCCCC4)nc3c2)cc1` [Compound 70] had a melting point of 222 °C. Moreover, the MIC50 in series [1] was over 20 µM. For the same molecule, in series [2], the MIC50 is over 20 µM.
As to `COc1ccc(NC(=O)c2cc3sc(NC(=O)C4CCCCC4)nc3s2)cc1` [Compound 65], the melting point came to 271 °C. Besides, the MIC50 in series [1] lay in the range of 1 to 20 µM (≈ 0.416 to 8.31 µg/mL). In series [2], the MIC50 is over 20 µM.
The molecule `COc1ccc(NC(=O)c2cc3sc(N4CCCC4)nc3s2)cc1` [Compound 78] displayed a melting point of 274.4 °C. For the same molecule, the MIC50 in series [1] was under 1 µM. The MIC50 in series [2] was under 1 µM.
As to `Cc1nc2ccc(NC(=O)c3cc4sc(N5CCOCC5)nc4s3)cc2o1` [Compound 85], the melting point was 273.6 °C. The MIC50 in series [1] is under 1 µM. Further, the MIC50 in series [2] is under 1 µM.
With `CN(C)C(=O)C1CCN(c2nc3sc(C(=O)Nc4ccc5oc(CN6CCOCC6)nc5c4)cc3s2)CC1` [Compound 196], the melting point was 239 °C. The MIC50 in series [1] was 1 to 20 µM (≈ 0.555 to 11.1 µg/mL). Moreover, the MIC50 in series [2] lay in the range of 1 to 20 µM (≈ 0.555 to 11.1 µg/mL).
The molecule `COc1ccc(NC(=O)c2cc3sc(N4CCN(C)CC4)nc3s2)cc1` [Compound 110] gave a melting point of 219.8 °C. The MIC50 in series [1] was under 1 µM. Also, the MIC50 in series [2] fell in the range of 1 to 20 µM (≈ 0.389 to 7.77 µg/mL).
For the molecule `CCN(CC)C(=O)c1cc2sc(N3CCCCC3)nc2s1` [Compound 57], the melting point amounted to 84 °C. Moreover, in series [1], the MIC50 lay within 1 to 20 µM (≈ 0.323 to 6.47 µg/mL). Also, the MIC50 in series [2] fell in the range of 1 to 20 µM (≈ 0.323 to 6.47 µg/mL).
Take `COc1ccc(NC(=O)c2cc3sc(N4CCOCC4)nc3s2)cc1` [Compound 66]: the melting point came to 248.8 °C. Moreover, the MIC50 in series [1] was under 1 µM. Also, in series [2], the MIC50 lay within 1 to 20 µM (≈ 0.375 to 7.51 µg/mL).
Regarding `CCc1cc2oc(C)nc2cc1NC(=O)c1cc2sc(N3CCOCC3)nc2s1` [Compound 150], the melting point came to 244 °C. Further, the MIC50 in series [1] is over 20 µM. For the same molecule, the MIC50 in series [2] was over 20 µM.
`N#Cc1ccc(NC(=O)c2cc3sc(N4CCOCC4)nc3s2)cc1` [Compound 112] showed a melting point of 212 °C. In series [1], the MIC50 was under 1 µM. Further, the MIC50 in series [2] is over 20 µM.
Taken in the same sequence, the figures for `Nc1ccc(OC(=O)c2cc3nc(N4CCCCC4)sc3s2)cc1` [Compound 9] were 153 °C, over 20 µM and over 20 µM.
The matching figures for `COc1ccc(NC(=O)c2cc3sc(N4CCCCC4)nc3s2)cn1` [Compound 47]: 232.4 °C, under 1 µM and under 1 µM.
Molecule `CN(C)C(=O)C1CCN(c2nc3sc(C(=O)Nc4ccc5oc(-c6ccc(F)cc6)nc5c4)cc3s2)CC1` [Compound 171] registered a melting point of 323 °C. In addition, the MIC50 in series [1] was under 1 µM. Further, in series [2], the MIC50 was over 20 µM.
In turn, `COc1ccc(NC(=O)c2cc3sc(N4CCC(C(=O)N(C)C)CC4)nc3s2)cc1` [Compound 127] showed a melting point of 273.4 °C. In addition, the MIC50 in series [1] was under 1 µM. In series [2], the MIC50 was under 1 µM.
The molecule `CC(C)(C)OC(=O)n1ncc2cc(NC(=O)c3cc4sc(N5CCOCC5)nc4s3)ccc21` [Compound 88] came in with a melting point of 331.7 °C. For the same molecule, in series [1], the MIC50 was over 20 µM. The MIC50 in series [2] was over 20 µM.
With `O=C(Nc1ccc(-n2ccnc2)cc1)c1cc2sc(N3CCOCC3)nc2s1` [Compound 182], the melting point was 266 °C. Moreover, the MIC50 in series [1] was over 20 µM. In addition, the MIC50 in series [2] is over 20 µM.
`COc1ccc(CCNC(=O)c2cc3sc(N4CCCCC4)nc3s2)cc1` [Compound 42] showed a melting point of 177.2 °C. Further, the MIC50 in series [1] is under 1 µM. The MIC50 in series [2] was 1 to 20 µM (≈ 0.402 to 8.03 µg/mL).
Taken in the same sequence, the figures for `O=C1Cc2cc(NC(=O)c3cc4nc(N5CCCCC5)sc4s3)ccc2N1` [Compound 23] were 260 °C, over 20 µM and over 20 µM.
In turn, `O=C(Nc1ccc(Oc2ccccc2)cc1)c1cc2sc(N3CCCCC3)nc2s1` [Compound 61] registered a melting point of 201 °C. Moreover, the MIC50 in series [1] is under 1 µM. Moreover, the MIC50 in series [2] was 1 to 20 µM (≈ 0.436 to 8.71 µg/mL).
Molecule `O=C(Nc1ccc(F)c(F)c1)c1cc2sc(N3CCCCC3)nc2s1` [Compound 36] had a melting point of 218 °C. Besides, in series [1], the MIC50 is under 1 µM. Also, in series [2], the MIC50 lay within 1 to 20 µM (≈ 0.379 to 7.59 µg/mL).
The molecule `Cc1nc2cc(Cl)c(NC(=O)c3cc4sc(N5CCOCC5)nc4s3)cc2o1` [Compound 147] came in with a melting point of 275.3 °C. In addition, in series [1], the MIC50 was over 20 µM. Also, the MIC50 in series [2] is over 20 µM.
`COc1ccc(C(=O)Nc2cc3sc(N4CCCCC4)nc3s2)cc1` [Compound 98]: the melting point stood at 92 °C. Also, in series [1], the MIC50 was over 20 µM. In series [2], the MIC50 is over 20 µM.
The molecule `COc1ccc(NC(=O)c2ccc3nc(N4CCCCC4)ccc3c2)cc1` [Compound 17] displayed a melting point of 209 °C. Moreover, the MIC50 in series [1] was over 20 µM. The MIC50 in series [2] fell in the range of 1 to 20 µM (≈ 0.361 to 7.23 µg/mL).
Molecule `O=C(Nc1ccccc1)c1cc2sc(N3CCCCC3)nc2s1` [Compound 46] showed a melting point of 259.1 °C. In series [1], the MIC50 was under 1 µM. The MIC50 in series [2] lay within 1 to 20 µM (≈ 0.343 to 6.87 µg/mL).
As to `Cc1nc2cc(NC(=O)c3cn4nc(N5CCOCC5)sc4n3)ccc2o1` [Compound 189], the melting point stood at 311 °C. In addition, in series [1], the MIC50 was over 20 µM. Moreover, the MIC50 in series [2] is over 20 µM.
Molecule `CCN(Cc1ccc(OC)cc1)c1nc2sc(C(=O)Nc3ccc(OC)cc3)cc2s1` [Compound 114] came in with a melting point of 112 °C. For the same molecule, the MIC50 in series [1] was under 1 µM. In addition, the MIC50 in series [2] was 1 to 20 µM (≈ 0.454 to 9.07 µg/mL).
The matching figures for `COc1ccc(NC(=O)c2cc3sc(N4CCCC(OCc5ccccc5)C4)nc3s2)cc1` (stereo not drawn) [Compound 95]: 169 °C, under 1 µM and over 20 µM.
With `CC(=O)c1ccc(NC(=O)c2cc3sc(N4CCOCC4)nc3s2)cc1` [Compound 188], the melting point turned out to be 248 °C. Besides, the MIC50 in series [1] was under 1 µM. The MIC50 in series [2] was under 1 µM.
For the molecule `Cc1nnc(-c2ccc(NC(=O)c3cc4sc(N5CCC(O)CC5)nc4s3)cc2)o1` [Compound 123], the melting point was determined as 334.4 °C. In addition, in series [1], the MIC50 was over 20 µM. Besides, the MIC50 in series [2] is over 20 µM.
`O=C(Nc1ccc(C(F)(F)F)cc1)c1cc2sc(N3CCOCC3)nc2s1` [Compound 107] showed a melting point of 259.3 °C. In addition, the MIC50 in series [1] is under 1 µM. In series [2], the MIC50 is over 20 µM.
Take `COc1ccc(NC(=O)c2cc3sc(N4CC5CC4CN5C(=O)OC(C)(C)C)nc3s2)cc1` (stereo not drawn) [Compound 93]: the melting point is 249 °C. In series [1], the MIC50 was over 20 µM. Moreover, the MIC50 in series [2] is over 20 µM.
Molecule `COc1ccc(NC(=O)c2cc3sc(N4CCC(Oc5ccccc5)CC4)nc3s2)cc1` [Compound 106] had a melting point of 225 °C. Moreover, in series [1], the MIC50 was under 1 µM. The MIC50 in series [2] is over 20 µM.
In the case of `Cc1nn(C)cc1-c1ccc(NC(=O)c2cc3sc(N4CCOCC4)nc3s2)cc1` [Compound 167], the melting point was 245 °C. The MIC50 in series [1] is under 1 µM. The MIC50 in series [2] lay within 1 to 20 µM (≈ 0.44 to 8.79 µg/mL).
In the case of `COC(=O)C1CCN(C(=O)c2cc3sc(N4CCCCC4)nc3s2)CC1` [Compound 56], the melting point stood at 136 °C. Moreover, the MIC50 in series [1] lay within 1 to 20 µM (≈ 0.394 to 7.87 µg/mL). In addition, the MIC50 in series [2] lay within 1 to 20 µM (≈ 0.394 to 7.87 µg/mL).
On to `COc1ncc(NC(=O)c2cc3sc(N4CCCCC4)nc3s2)cn1` [Compound 55], for which the melting point came out at 219 °C. The MIC50 in series [1] is under 1 µM. Moreover, in series [2], the MIC50 was over 20 µM.
Taken in the same sequence, the figures for `Cc1nc2cc(NC(=O)c3sc4nc(N5CCOCC5)sc4c3C)ccc2o1` [Compound 163] were 226 °C, over 20 µM and over 20 µM.
`Cc1nc2cc(NC(=O)c3sc4nc(N5CCOCC5)sc4c3Br)ccc2o1` [Compound 157]: the melting point worked out at 269 °C. In addition, the MIC50 in series [1] is over 20 µM. The MIC50 in series [2] was over 20 µM.
`CC(CNC(=O)c1ccc2nc(N3CCCCC3)sc2c1)c1ccccc1` (stereo not drawn) [Compound 1] showed a melting point of 196 °C. Also, the MIC50 in series [1] was over 20 µM. Further, the MIC50 in series [2] is over 20 µM.
For `COc1ccc(NC(=O)c2cc3sc(C(C)C)nc3s2)cc1` [Compound 115], the melting point was determined as 149 °C. In addition, the MIC50 in series [1] was under 1 µM. In addition, the MIC50 in series [2] was 1 to 20 µM (≈ 0.332 to 6.65 µg/mL).
For the molecule `COc1ccc(NC(=O)c2cc3sc(N4CCCC(O)C4)nc3s2)cc1` (stereo not drawn) [Compound 96], the melting point was determined as 238 °C. Moreover, the MIC50 in series [1] was under 1 µM. In addition, in series [2], the MIC50 was under 1 µM.
Turning to `Cc1nc2cc(NC(=O)N3CCc4nc(N5CCOCC5)sc4C3)ccc2o1` [Compound 187], the melting point was determined as 104 °C. Moreover, the MIC50 in series [1] was over 20 µM. In addition, the MIC50 in series [2] is over 20 µM.
`COc1ccc(CCNC(=O)c2cc3nc(N4CCCCC4)sc3s2)cc1` [Compound 22] registered a melting point of 188 °C. Moreover, the MIC50 in series [1] was in the range of 1 to 20 µM (≈ 0.402 to 8.03 µg/mL). Also, the MIC50 in series [2] is 1 to 20 µM (≈ 0.402 to 8.03 µg/mL).
Regarding `O=C(Nc1ccc(CN2CCC(c3ccc(Cl)cc3)CC2)cc1)c1cc2sc(N3CCOCC3)nc2s1` [Compound 200], the melting point was 254.6 °C. The MIC50 in series [1] is over 20 µM. In series [2], the MIC50 was over 20 µM.
In turn, `COc1ccc(NC(=O)c2cc3sc(N4CCCC(N)C4)nc3s2)cc1` (stereo not drawn) [Compound 119] showed a melting point of 232 °C. Also, the MIC50 in series [1] is under 1 µM. Further, in series [2], the MIC50 was over 20 µM.
The matching figures for `COc1ccc(NC(=O)c2cc3sc(N)nc3s2)cc1` [Compound 64]: 260 °C, 1 to 20 µM (≈ 0.305 to 6.11 µg/mL) and over 20 µM.
`O=C(Nc1ccc(-c2n[nH]cc2F)cc1)c1cc2sc(N3CCOCC3)nc2s1.O=C(O)C(F)(F)F` [Compound 159] came in with a melting point of 287.2 °C. The MIC50 in series [1] is under 1 µM. The MIC50 in series [2] is 1 to 20 µM.
